One data set deals with T1, human β2AR (Homo sapiens, UniProt P07550).
T1 construct: host or cells: HEK-293T
It counts as cell-based.

Data set [1] can be described thus: UV/Vis spectra of E- and Z-isomers in Tris buffer. Type of data set: physicochemical. As to conditions: for λmax (E): E-isomer, Tris buffer 50 mM Tris, 1 mM EDTA, 1 mM MgCl2; for λmax (Z): Z-isomer, Tris buffer. The protocol:
1.4. Photophysical Characterization
1.4.1. UV/Vis Spectra and Cycle Performance
UV/Vis absorption spectra were measured to characterize the photophysical properties of the synthesized pho to switches. The pho to switches were diluted with TRIS buffer (50 m M Tris, 1 m M EDTA, 1 mM MgCl2, pH 7.4) to end up with a concentration of 10 µM + 0.5% DMSO. The spectra were measured in a quartz glass cuvette after different illuminations with LED modules. First, the solution was illuminated with 365 nm light for 10 s to switch to the Z -isomer. After measuring the UV/Vis spectrum of the Z-isomer (purple curve), the solution was illuminated with 528 nm light for 120 s and the spectrum for the E -isomer (black curve) was measured. This cycle was repeated ten times to show the stability and repeatability of switching the compound. The isosbestic points could be determined from an overlay of the UV/Vis spectra of both isomers.
(§1) Wavelength λ [nm] Cycle Number
Figure S10. UV/Vis spectr um and cycle performance of 1.
Figure S11. UV/Vis spectr um and cycle performance of 2.
(also on this page, place not known: photoswitches. photoswitches mM mM MgCl 2, 0.5 % E-isomer coul d spectrum spectrum 600 0,15Absorbance 0 Absorbance 340 nm 600 0,18Absorbance 0 Absorbance 335 nm)

Data set [2] in a line: Thermal half-life of the metastable Z isomer. It counts as physicochemical. As to conditions: Tris buffer + 0.5% DMSO. The protocol:
Figure S36. Photostationary state of 9 after irradiation with 528 nm (switching to the E -isomer).
1.4.3. Thermal Half-lives
For the determination of the thermal stability of the metastable Z isomer a 50 µM solution in Tris buffer
+ 0.5% DMSO was irradiated with 365 nm. For 4 weeks the absorption at 335 nm was measured every
ExpDec1 Fit of Sheet1 B 0,35 ExpDec1 Fit of Sheet1 B
Modell ExpDec1 Modell ExpDec1
Gle i c hung y = A 1 *e xp (-x/t1 ) + y0 Gle i c hung y = A 1 *e xp (-x/t1 ) + y0
Ze i c hne n B Ze i c hne n B
(also on this page, place not known: E-isomer). 0,45absorption 335 nm Gleichung A1*exp(-x/t1) Zeichnen (COD) 0,50absorption 335 nm Gleichung A1*exp(-x/t1) Zeichnen (COD)) […]

Data set [3] can be described thus: Photostationary states by analytical HPLC at isosbestic points. Type of data set: physicochemical. Particulars: single experiment; for PSS (E → Z): irradiation with 365 nm; for PSS (Z → E): irradiation with 528 nm. The protocol: as §1
Figure S18. UV/Vis spectr um and cycle performance of 7.
1.4.2. Photostationary States
Photostationary states (PSS) were measured on analytical HPLC. To determine the photostationary state of the photoswitches the samples (0.2 mM in Tris buffer + 2% DMSO) were irradiated first with 3 65 nm to get the Z -isomer (Peak 1). Afterwards, the sample was irradiated with 528 nm to get back to the E-isomer (Peak 2). The samples were measured at the isosbestic points.
Figure S19. Photostationary state of 1 after irradiation with 365 nm (switching to the Z - isomer).
Figure S20. Photostationary state of 1 after irradiation with 528 nm (switching to the E -isomer). […]

Where [4] appears, read: E-isomer, β2AR wild type, mean ± S.E.M.
[5] abbreviates: HEK-293T, E-isomer, β2AR wild type, relative to maximum effect of norepinephrine, read-out: Emax.
Setting [6] is: HEK-293T, Z-isomer, β2AR wild type, relative to maximum effect of norepinephrine, read-out: Emax.
Setting [7] is: Z-isomer, β2AR wild type, mean ± S.E.M.
[8] abbreviates: HEK-293T, reference agonists, β2AR wild-type, relative to norepinephrine, read-out: Emax.

Read-outs that look alike come from different tables or passages of the source.

T1 sequence (P07550 whole entry): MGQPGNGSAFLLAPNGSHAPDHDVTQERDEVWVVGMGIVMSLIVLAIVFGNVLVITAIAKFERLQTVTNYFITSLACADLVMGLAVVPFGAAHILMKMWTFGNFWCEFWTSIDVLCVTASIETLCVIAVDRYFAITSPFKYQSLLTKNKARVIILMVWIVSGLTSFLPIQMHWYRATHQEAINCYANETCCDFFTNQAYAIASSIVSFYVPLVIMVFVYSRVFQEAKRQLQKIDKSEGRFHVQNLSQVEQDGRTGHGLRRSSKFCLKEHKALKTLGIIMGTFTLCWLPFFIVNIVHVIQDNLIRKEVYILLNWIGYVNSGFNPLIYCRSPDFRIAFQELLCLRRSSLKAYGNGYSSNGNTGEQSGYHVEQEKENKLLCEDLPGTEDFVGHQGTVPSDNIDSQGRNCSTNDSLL

Consider `Cc1nn(CCSSCCN)c(C)c1N=Nc1ccc(CCNCC(O)c2ccc(O)c3c2OCC(=O)N3)cc1` (mixture of isomers) [Compound 3], for which the midpoint of the response on human β2AR (setting [4]), the EC50, lay at 7.2 ± 3 nM. Also, the Emax – broadly, the greatest response seen or fitted, relative to the assay's reference – on human β2AR (setting [5]) amounted to 85 ± 2%. Also, the maximum response (Emax) on human β2AR (setting [6]) amounted to 78 ± 4%. Also, the midpoint of the response on human β2AR (setting [7]), the EC50, lay at 17 ± 6.3 nM. Moreover, in data set [1], the “λmax (E)” value is 337 nm and the “λmax (Z)” value is recorded as 434 nm. For the same compound, the t1/2 in data set [2] came to 15.2 days. Further, in data set [3], the “PSS (E → Z)” value was 95% and the “PSS (Z → E)” value turned out to be 89%.
For the compound `Cc1nn(CCCCSSCCN)c(C)c1/N=N/c1ccc(CCNCC(O)c2ccc(O)c3c2OCC(=O)N3)cc1` (racemic) [Compound E-5], the midpoint of the response at human β2AR (setting [4]), the EC50, lay at 79 nM.
`Cc1nn(CCCCCSSCCN)c(C)c1/N=N/c1ccc(CCNCC(O)c2ccc(O)c3c2OCC(=O)N3)cc1` (racemic) [Compound E-6]: the maximum response (Emax) at human β2AR (E-isomer, β2AR wild type, relative to maximum effect of norepinephrine) stood at 70%.
At human β2AR (Z-isomer, β2AR wild type, relative to maximum effect of norepinephrine), `Cc1nn(CCCCCSSCCN)c(C)c1/N=N\c1ccc(CCNCC(O)c2ccc(O)c3c2OCC(=O)N3)cc1` (racemic) [Compound Z-6] had a maximum response (Emax) of 85%.
For the compound `Cc1nn(CCSSCCN(C)C)c(C)c1/N=N/c1ccc(CCNC[C@H](O)c2ccc(O)c(O)c2)cc1` [Compound 1, (R,E)-4-(2-((4-((1-(2-((2-(Dimethylamino)ethyl)disulfaneyl)ethyl)-3,5-dimethyl-1H-pyrazol-4-yl)diazenyl)phenethyl)amino)-1-hydroxyethyl)benzene-1,2-diol], the EC50 (in general, the concentration that produces a half-maximal response) came out at 630 ± 72 nM on human β2AR (setting [4]) and 480 ± 110 nM at human β2AR (setting [7]). The Emax at human β2AR (setting [5]) stood at 108 ± 3%; at human β2AR (setting [6]), 78 ± 1%. For the same compound, in data set [1], the “λmax (E)” value is 335 nm. Further, the “λmax (Z)” value in data set [1] came out at 435 nm. For the same compound, in data set [2], the t1/2 amounted to 3.9 days. Further, the “PSS (E → Z)” value in data set [3] was 89%. For the same compound, in data set [3], the “PSS (Z → E)” value amounted to 90%.
The compound `Cc1nn(CCCSSCCN(C)C)c(C)c1/N=N/c1ccc(CCNC[C@H](O)c2ccc(O)c(O)c2)cc1` [Compound 2] yielded an EC50 on human β2AR (setting [4]) of 940 ± 34 nM. For the same compound, the Emax on human β2AR (setting [5]) came to 96 ± 2%. Also, the Emax on human β2AR (setting [6]) is 97 ± 1%. For the same compound, a half-maximal effect on human β2AR (setting [7]) (EC50) was put at 700 ± 35 nM. In addition, in data set [1], the “λmax (E)” value was 335 nm and the “λmax (Z)” value is listed as 433 nm. Further, the t1/2 in data set [2] is 4.9 days. In data set [3], the “PSS (E → Z)” value is reported as 89% and the “PSS (Z → E)” value was found to be 87%.
For the compound `Cc1nn(CCCSSCCN)c(C)c1/N=N/c1ccc(CCNCC(O)c2ccc(O)c3c2OCC(=O)N3)cc1` (centres unmarked) [Compound 4], on human β2AR (setting [4]), the 50% effective concentration (EC50) is 39 ± 7 nM. In addition, the Emax at human β2AR (setting [5]) turned out to be 88 ± 3%. For the same compound, the Emax at human β2AR (setting [6]) is 87 ± 5%. For the same compound, the EC50 on human β2AR (setting [7]) worked out at 9.8 ± 0.9 nM. Besides, in data set [1], the “λmax (E)” value worked out at 339 nm and the “λmax (Z)” value amounted to 436 nm. Besides, the t1/2 in data set [2] came to 15.7 days. Further, in data set [3], the “PSS (E → Z)” value worked out at 96% and the “PSS (Z → E)” value is 92%.
In turn, `Cc1nn(CCCCSSCCN)c(C)c1/N=N/c1ccc(CCNCC(O)c2ccc(O)c3c2OCC(=O)N3)cc1` (centres unmarked) [Compound 5] yielded an EC50 on human β2AR (setting [4]) of 79 ± 25 nM. Also, the Emax on human β2AR (setting [5]) came out at 98 ± 1%. In addition, the maximal effect (Emax) on human β2AR (setting [6]) is 93 ± 4%. At human β2AR (setting [7]), the EC50 was determined as 9.9 ± 1.7 nM. Besides, in data set [1], the “λmax (E)” value is recorded as 338 nm and the “λmax (Z)” value worked out at 436 nm. Besides, the t1/2 in data set [2] worked out at 16.7 days. For the same compound, in data set [3], the “PSS (E → Z)” value was determined as 94% and the “PSS (Z → E)” value is 92%.
Take `Cc1nn(CCCCCSSCCN)c(C)c1/N=N/c1ccc(CCNCC(O)c2ccc(O)c3c2OCC(=O)N3)cc1` (centres unmarked) [Compound 6]: the values for the EC50 on human β2AR (setting [4]) and at human β2AR (setting [7]) were 38 ± 5.8 nM and 21 ± 1.3 nM, respectively. Besides, the figures for the maximal response (Emax) at human β2AR (setting [5]) and on human β2AR (setting [6]) were 70 ± 2% and 89 ± 1%, respectively. Moreover, the “λmax (E)” value in data set [1] is given as 340 nm. The “λmax (Z)” value in data set [1] turned out to be 435 nm. Also, the t1/2 in data set [2] was 13.3 days. In data set [3], the “PSS (E → Z)” value is reported as 95%. For the same compound, the “PSS (Z → E)” value in data set [3] was 93%.
Take `Cc1nn(CCN2C(=O)C=CC2=O)c(C)c1/N=N/c1ccc(CCNC[C@H](O)c2ccc(O)c(O)c2)cc1` [Compound 7]: on human β2AR (setting [4]), the EC50 is 1500 nM. The Emax on human β2AR (setting [5]) stood at 103 ± 4%. The Emax on human β2AR (setting [6]) was found to be 101 ± 10%. For the same compound, the concentration giving a half-maximal response (EC50) on human β2AR (setting [7]) is 4300 nM. In addition, in data set [1], the “λmax (E)” value was 335 nm and the “λmax (Z)” value came to 433 nm. For the same compound, the t1/2 in data set [2] came out at 4.5 days. Further, in data set [3], the “PSS (E → Z)” value was 92% and the “PSS (Z → E)” value came out at 85%.
`Cc1nn(CCN2C(=O)C=CC2=O)c(C)c1/N=N/c1ccc(CCNCC(O)c2ccc(O)c3c2OCC(=O)N3)cc1` (centres unmarked) [Compound 8] gave an EC50 on human β2AR (setting [4]) of 53 ± 2.6 nM. Also, on human β2AR (setting [5]), the maximal response (Emax) was 84 ± 5%. In addition, the maximal effect (Emax) on human β2AR (setting [6]) stood at 90 ± 2%. This compound also yielded an EC50 on human β2AR (setting [7]) of 75 ± 2.3 nM. Also, in data set [1], the “λmax (E)” value came out at 337 nm and the “λmax (Z)” value is 435 nm. Also, the t1/2 in data set [2] was determined as 18.6 days. Also, in data set [3], the “PSS (E → Z)” value turned out to be 95% and the “PSS (Z → E)” value is recorded as 94%.
With `Cc1nn(CCCN2C(=O)C=CC2=O)c(C)c1/N=N/c1ccc(CCNCC(O)c2ccc(O)c3c2OCC(=O)N3)cc1` (centres unmarked) [Compound 9], the values for the EC50 on human β2AR (setting [4]) and on human β2AR (setting [7]) were 72 ± 12 nM and 57 ± 8.5 nM, respectively. Further, the maximal response (Emax) at human β2AR (setting [5]) came out at 88 ± 5%; at human β2AR (setting [6]), 85 ± 5%. Moreover, in data set [1], the “λmax (E)” value came to 339 nm. Also, the “λmax (Z)” value in data set [1] is listed as 435 nm. In data set [2], the t1/2 came to 20.4 days. Besides, in data set [3], the “PSS (E → Z)” value is 95%. In addition, in data set [3], the “PSS (Z → E)” value turned out to be 93%.
Take `Cc1nn(CCSSCCN)c(C)c1/N=N/c1ccc(CCNCC(O)c2ccc(O)c3c2OCC(=O)N3)cc1` (centres unmarked) [Compound E-3]: on human β2AR (setting [4]), it took 7.2 nM to reach a half-maximal effect (EC50).
For the compound `Cc1nn(CCSSCCN(C)C)c(C)c1/N=N\c1ccc(CCNC[C@H](O)c2ccc(O)c(O)c2)cc1` [Compound Z-1], the EC50 on human β2AR (Z-isomer, β2AR wild type) amounted to 480 nM.
On the same count and under the same terms, under `Cc1nn(CCN2C(=O)C=CC2=O)c(C)c1/N=N\c1ccc(CCNC[C@H](O)c2ccc(O)c(O)c2)cc1` [Compound Z-7] stands 4300 nM.
In the case of `CNC[C@H](O)c1ccc(O)c(O)c1` [epinephrine, reference compound], the Emax on human β2AR (setting [8]) was found to be 103%.
The same measure, in the same setting: next, `NC[C@H](O)c1ccc(O)c(O)c1` [norepinephrine, reference compound]: 100%.
